From PubChem BioAssay (NCI) come the findings set out here.

Some test systems named below: U251 CNS; SN12C renal; UO-31 renal; HCT-116 colon; SR leukemia; HCT-15 colon; LOX IMVI melanoma; OVCAR-3 ovarian; OVCAR-8 ovarian; SK-OV-3 ovarian.
Common to all, as to assay: NCI tumour cell line growth inhibition, 48 h

Each structure is given as a SMILES string.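 A five-concentration, 48-hour dose response in 96-well plates underlies each endpoint, interpolated linearly between surrounding concentrations. At the GI50, growth is halved. TGI is the concentration that stops growth completely.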

With `COc1cc2ccc1-c1cc(ccc1O)CC1c3cc4c(cc3CCN1C)Oc1c(OC)cc3c(c1O4)C(C2)N(C)CC3` (stereo not drawn), the TGI was 3.07 µM in the test on U251 CNS; 3.96 µM in the test with SN12C renal; 3.27 µM with UO-31 renal; 2.89 µM in the test with HCT-116 colon; 4 µM in the test with SR leukemia; 3.12 µM in the test with HCT-15 colon. Besides, the TGI is 3.75 µM in the test on LOX IMVI melanoma and 3.93 µM with OVCAR-3 ovarian.
In the case of `Oc1cc(O)cc(/C=C/c2ccc(O)c(O)c2)c1`, the TGI is 42.8 µM in the test on U251 CNS; 40.8 µM in the test with SN12C renal; 39.3 µM with UO-31 renal; 20.9 µM in the test on HCT-116 colon; more than 100 µM in the test on OVCAR-8 ovarian; 47.7 µM with SK-OV-3 ovarian. Moreover, the TGI in the test on HCT-15 colon is more than 100 µM; with LOX IMVI melanoma, more than 41.7 µM; in the test with OVCAR-3 ovarian, more than 100 µM.
For the molecule `CN(C)c1ccc(C2CC(=O)C(C#N)=C(c3ccccc3)NN2C)cc1` (stereo not drawn), the TGI with U251 CNS was more than 100 µM; in the test with SN12C renal, more than 100 µM; with HCT-116 colon, more than 100 µM; in the test on SK-OV-3 ovarian, more than 100 µM; in the test with SR leukemia it was more than 100 µM; in the test with HCT-15 colon, 32.5 µM. Also, the TGI with LOX IMVI melanoma is more than 100 µM.
`CN(C)c1ccc2nc3c(C(=O)O)cc(=O)c(O)c-3oc2c1`: the TGI with U251 CNS was more than 100 µM; in the test with SN12C renal, 64.6 µM; with UO-31 renal, 80.1 µM; in the test with HCT-116 colon, 80.1 µM; in the test on OVCAR-8 ovarian, more than 100 µM; in the test with SK-OV-3 ovarian it was more than 100 µM. The TGI with SR leukemia is 50.1 µM; in the test on HCT-15 colon, more than 100 µM; with LOX IMVI melanoma, more than 100 µM; in the test on OVCAR-3 ovarian, 60.8 µM.
Consider `C[n+]1cccc(/C=C/c2ccc3cccc(O)c3n2)c1`, for which the TGI in the test with U251 CNS, in the test with SN12C renal, in the test with UO-31 renal, with HCT-116 colon, in the test with OVCAR-8 ovarian and with SK-OV-3 ovarian was more than 100 µM each time. The TGI with SR leukemia, in the test on HCT-15 colon, with LOX IMVI melanoma and in the test with OVCAR-3 ovarian was more than 100 µM in each case.
In the case of `CC(C)CNc1nc(N)[nH]c(=O)c1NC=O`, the TGI in the test on U251 CNS, in the test on SN12C renal, in the test on UO-31 renal, in the test with HCT-116 colon, with OVCAR-8 ovarian and with SK-OV-3 ovarian was more than 100 µM each time. The TGI in the test with HCT-15 colon, in the test on LOX IMVI melanoma and in the test with OVCAR-3 ovarian was more than 100 µM each time.
In the case of `N=C(N)c1ccc(-c2ccc(-c3ccc(Cl)cn3)s2)cc1`, the GI50 in the test on UO-31 renal was 1.68 µM; with SK-OV-3 ovarian, 1.83 µM; in the test on HCT-15 colon, 1.61 µM. Besides, the TGI in the test on UO-31 renal came out at 3.07 µM; in the test with SK-OV-3 ovarian, 3.49 µM; in the test with HCT-15 colon, 3.08 µM.
`CCN(CC)Cc1ccc2cccnc2c1O`: the TGI in the test with U251 CNS was more than 100 µM; with SN12C renal, 47.2 µM; in the test on UO-31 renal it was more than 100 µM; with HCT-116 colon, 41.8 µM; in the test on OVCAR-8 ovarian, 7.01 µM; with SK-OV-3 ovarian it was 25.1 µM. Further, the TGI is more than 100 µM with SR leukemia, 18.5 µM in the test with HCT-15 colon, more than 100 µM with LOX IMVI melanoma and 11.4 µM in the test on OVCAR-3 ovarian.
In the case of `Cc1cc(=O)[nH]c(NN2C(Cl)C(=O)C2c2cccc([N+](=O)[O-])c2)n1` (stereo not drawn), the TGI with U251 CNS is 47.4 µM; in the test with SN12C renal it was 37.6 µM; in the test on UO-31 renal, more than 100 µM; with HCT-116 colon, 49.9 µM; with OVCAR-8 ovarian, more than 100 µM; in the test with SR leukemia it was 57.8 µM. Further, the TGI in the test with HCT-15 colon was found to be 31.5 µM; in the test on LOX IMVI melanoma, 26.9 µM; in the test with OVCAR-3 ovarian, 32.3 µM.
On to `COc1cc2c(cc1OC)C(Cl)C(c1ccc(Cl)cc1)=C2Cl` (stereo not drawn), for which the TGI in the test with U251 CNS was 26.6 µM; with SN12C renal it was 48.6 µM; in the test on UO-31 renal it was 32.6 µM; in the test on OVCAR-8 ovarian, 60.5 µM; in the test with SK-OV-3 ovarian it was 57.5 µM; with HCT-15 colon, 41.4 µM. The values for the TGI in the test on LOX IMVI melanoma and with OVCAR-3 ovarian were 25.5 µM and 30.1 µM, respectively.
With `C[C@H]1CCC/C=C/[C@@H]2C[C@H](O)C[C@H]2[C@H](O)[C@@H](S(=O)CCN)CC(=O)O1` (stereo partly drawn), the GI50 in the test on U251 CNS is 0.0538 µM; in the test on SN12C renal, 0.085 µM; in the test with UO-31 renal, 0.0269 µM; in the test on HCT-116 colon it was 0.0569 µM; in the test on OVCAR-8 ovarian, less than 0.0181 µM; in the test with SK-OV-3 ovarian, 0.0245 µM. Moreover, the GI50 was 0.28 µM in the test on HCT-15 colon, 0.031 µM in the test on LOX IMVI melanoma and 0.0495 µM in the test with OVCAR-3 ovarian. Further, the TGI in the test with U251 CNS is more than 100 µM; with SN12C renal it was 0.472 µM; with UO-31 renal it was 0.446 µM; with HCT-116 colon, 0.169 µM; in the test with OVCAR-8 ovarian it was 0.154 µM; with HCT-15 colon, 10.8 µM. In the test with LOX IMVI melanoma, this molecule returned a TGI of 0.101 µM.
On to `c1ccc2c[n+](CCCCCCCCCC[n+]3ccc4ccccc4c3)ccc2c1`, for which the TGI is more than 10 µM in the test on U251 CNS; more than 8.94 µM in the test on SN12C renal; more than 10 µM in the test on UO-31 renal; more than 10 µM in the test with HCT-116 colon; more than 10 µM with OVCAR-8 ovarian; more than 10 µM with SK-OV-3 ovarian. For the same molecule, the TGI in the test on SR leukemia, with HCT-15 colon, in the test with LOX IMVI melanoma and with OVCAR-3 ovarian was more than 10 µM each time.
On to `CC[C@H](Nc1nc(N)nc(N)c1Cl)c1nc2cccc(NCc3ccc(C(=O)NO)cc3)c2c(=O)n1-c1ccccc1`, for which the GI50 is 1.51 µM in the test on U251 CNS; 1.78 µM in the test on SN12C renal; 1.69 µM with OVCAR-8 ovarian; 0.579 µM in the test on SR leukemia; 2.02 µM in the test on HCT-15 colon; 1.73 µM in the test on LOX IMVI melanoma. Besides, the TGI with U251 CNS was 3.08 µM; with SN12C renal, 4.78 µM; in the test on OVCAR-8 ovarian, 5.05 µM; in the test with SR leukemia, more than 100 µM; in the test with HCT-15 colon, 4.75 µM; in the test with LOX IMVI melanoma, 3.17 µM.
Turning to `O=C(O)c1ccccn1`, the TGI with U251 CNS, in the test with SN12C renal, in the test on UO-31 renal, in the test on HCT-116 colon, in the test with OVCAR-8 ovarian and in the test on SR leukemia was more than 100 µM in each case. For the same molecule, the TGI with HCT-15 colon and in the test with OVCAR-3 ovarian was more than 100 µM each time.
Take `COc1cnc2c(c1)C(=O)c1c-2n(CCCN2CCNCC2)c(=O)c2cc(Cl)ccc12`: the GI50 with UO-31 renal is 1.03 µM; in the test on SK-OV-3 ovarian, 1.16 µM; in the test with OVCAR-3 ovarian, 1.43 µM. Further, the TGI with UO-31 renal is 2.41 µM; in the test on SK-OV-3 ovarian, 2.51 µM; in the test on OVCAR-3 ovarian it was 2.83 µM.
In the case of `O=C1c2ccccc2C(=O)c2c(NCCNC(=O)C3CCCN3)ccc(NCCNC(=O)C3CCCN3)c21` (stereo not drawn), the TGI with U251 CNS was more than 100 µM; in the test on SN12C renal, more than 100 µM; with UO-31 renal, more than 100 µM; with HCT-116 colon it was 27.5 µM; in the test on OVCAR-8 ovarian, 94.3 µM; with SK-OV-3 ovarian, more than 100 µM. For the same molecule, the TGI with SR leukemia is 66.8 µM; in the test with HCT-15 colon, more than 100 µM; in the test on LOX IMVI melanoma, 1.58 µM; in the test on OVCAR-3 ovarian, more than 100 µM.
As to `CN(C)CCNC(=O)c1cccc2nc3c4ccccc4c4ccccc4c3nc12`, the TGI with U251 CNS was 4.56 µM; in the test with SN12C renal, 3.64 µM; with UO-31 renal, 22.9 µM; in the test with HCT-116 colon, 3.21 µM; with OVCAR-8 ovarian it was 7.76 µM; in the test on SK-OV-3 ovarian, 13.4 µM. Moreover, the TGI was 13 µM in the test on SR leukemia, 3.13 µM in the test with HCT-15 colon, 3.13 µM in the test on LOX IMVI melanoma and 7 µM with OVCAR-3 ovarian.
As for `CN(C)[C@@H]1C(=O)C(C(=O)NCNCCCC(=O)O)=C(O)[C@@]2(O)C(=O)C3=C(O)c4c(O)cccc4[C@@](C)(O)[C@H]3C[C@@H]12`, the TGI in the test with U251 CNS, in the test with SN12C renal, in the test on UO-31 renal, in the test with HCT-116 colon, in the test with OVCAR-8 ovarian and with SK-OV-3 ovarian was more than 100 µM in each case. The TGI with SR leukemia, in the test on HCT-15 colon, in the test on LOX IMVI melanoma and in the test with OVCAR-3 ovarian was more than 100 µM each time.
